Data as given in patent publication US5798356A, “Angiostatic compounds” (Alcon Laboratories, Inc., priority 1996, dated 1998).

Legend:
[1] = test system: rabbit cornea; assay: rabbit model of lipopolysaccharide (LPS) induced corneal neovascularization; assay type: in vivo; conditions: Elvax-40 pellet in cornea, Elvax control = 100
Procedure: Representative compounds of the present invention were assayed for their efficacy in inhibiting angiogenesis in vivo, in a rabbit model of lipopolysaccharide (LPS) induced corneal neovascularization. Briefly, the test compound and LPS (a stimulus for initiating neovascularization) are incorporated into separate Elvax-40 pellets as described in D. […] The area covered by new vessel formation in response to LPS is measured and suppression of neovascularization by test compounds is estimated at the end of the test period. The data is expressed as a relative area units in relation to the Elvax control (100).

[2] = test system: chorioallantoic membrane (CAM); assay: inhibition of angiogenesis in a chorioallantoic membrane (CAM) model; assay type: in vivo, chicken embryo; conditions: 10 μg in liposome/agarose bead on CAM, 2 days; percent responding embryos per nanomole relative to tetrahydrocortisol
Procedure: Representative compounds of the present invention were assayed for their efficacy in inhibiting angiogenesis in a chorioallantoic membrane (CAM) model (See, McNatt, et al., Angiostatic Activity and Metabolism of Cortisol in The Chorioallantoic Membrane (CAM) of the Chick Embryo, Journal of Steriod Biochemistry and Molecular Biology, volume 42, No. 7, pages 687-693 (1992)). Briefly, 10 μg of the test compound or reference compound (tetrahydrocortisol) were suspended in a liposome/agarose bead and placed on the CAM of a 5-6 day chicken embryo. Following 2 days of incubation, the CAMs were scored for relative angiostatic activity by comparing percent responding embryos per nanomole test compound to percent responding embryos for the reference compound.

[3] = test system: human umbilical vein endothelial cells (HUVEC); assay: inhibition of endothelial cell proliferation (HUVEC); assay type: cell-based; conditions: for inhibition at 1 µM / inhibition at 5 µM / inhibition at 10 µM / inhibition at 25 µM: Homo sapiens; for inhibition at 25 µM: concentration 25 μM
Procedure: Representative compounds of the present invention were assayed for their efficacy in inhibiting endothelial cell proliferation. […] At mid-log phase the cells were detached from the plate and counted using a coulter counter. Viability tests were conducted using trypan blue. The data is expressed as percent inhibition based on the control number of endothelial cells counted.

[4] = test system: human lung microvascular endothelial cells; assay: inhibition of 3H-thymidine uptake in DNA as a measure of DNA synthesis; assay type: cell-based; conditions: Endothelial cell, 18 hours exposure, then 3H-thymidine 6 hours; for inhibition at 5 µM: concentration 5.0 μM; for inhibition at 10 µM: concentration 10 μM; for inhibition at 25 µM: concentration 25 μM
Procedure: Representative compounds of the present invention were assayed for their efficacy in inhibiting ^3 H-thymidine uptake in DNA as a measure of DNA synthesis (R.I. Freshney, Culture of Animal Cells, 3rd Edition, John Wiley and Sons, N.Y., N.Y., pages 277-278 (1994)). Briefly, human lung microvascular endothelial cells in mid-log phase were exposed to either a representative compound of the present invention or the vehicle (1.0% DMSO) for 18 hours. Cells were then incubated with ^3 H-thymidine for another 6 hours. DNA synthesis was stopped by the addition of cold 5% TCA solution and the relative synthesis assessed by measuring ^3 H-thymidine incorporated into the acid-insoluble product. The data is expressed as percent inhibition of uptake based on tritium counts in the vehicle control reactions.

| Compound | Relative Area of Neovascularization ([1]; day 4) [relative area units] | Relative Area of Neovascularization ([1]; day 9) [relative area units] | Relative Area of Neovascularization ([1]; day 15) [relative area units] | Relative Area of Neovascularization ([1]; day 22) [relative area units] | RAF (Relative Angiostatic Factor) [2] | inhibition at 1 µM ([3]; concentration 1.0 μM) [%] | inhibition at 5 µM ([3]; concentration 5.0 μM) [%] | inhibition at 10 µM ([3]; concentration 10 μM) [%] | inhibition at 25 µM [3] [%] | also measured |
| --- | --- | --- | --- | --- | --- | --- | --- | --- | --- | --- |
| COc1ccc2cc(C(C)C(=O)NCC3(C)CCc4c(C)c(O)c(C)c(C)c4O3)ccc2c1 (stereo not shown) [C] | 102 | 57 | 41 | 60 |  |  |  |  |  |  |
| COc1ccc2cc(C(C)C(=O)OCCC3(C)CCc4c(C)c(O)c(C)c(C)c4O3)ccc2c1 (stereo not shown) [Compound A] | 66 | 54 | 48 | 103 | 0.10 | 6.7 | 25.5 | 43.4 | 55.2 | inhibition at 5 µM [4]: 16.3%; inhibition at 10 µM [4]: 25.7%; inhibition at 15 µM ([4]; concentration 15 μM): 57.4%; inhibition at 20 µM ([4]; concentration 20 μM): 82.9%; inhibition at 25 µM [4]: 96.5% |
| COc1ccc2cc(C(C)C(=O)OCC3(C)Cc4c(C)c(O)c(C)c(C)c4O3)ccc2c1 (stereo not shown) [Compound B] |  |  |  |  | 1.06 | 5 | 13.9 | 47.7 | 60.5 | inhibition at 5 µM [4]: 36.9%; inhibition at 10 µM [4]: 63.1%; inhibition at 25 µM [4]: 97.9% |
| Cc1c(C)c2c(c(C)c1O)CC(C)(CCN1CCN(C(c3ccc(F)cc3)c3ccc(F)cc3)CC1)O2 (stereo not shown) [Compound E] | 99 | 76 | 88 | 115 | 1.78 | 25 | 48 | 88 | 91 |  |
| Cc1c(C)c2c(c(C)c1OC(=O)CCC(=O)O)CCC(C)(CCCC(C)CCCC(C)CCCC(C)C)O2 (stereo not shown) [Compound G] |  |  |  |  | 1.21 | 43 | 8 | 35.1 | 65.5 |  |
| Cc1c(C)c2c(c(C)c1O)CCC(C)(CCO)O2 (stereo not shown) [F] | 92 | 85 | 30 | 39 |  |  |  |  |  |  |
| C[C@]12CCC(=O)C=C1CC[C@@H]1[C@@H]2[C@@H](O)C[C@@]2(C)[C@H]1CC[C@]2(O)C(=O)COC(=O)CCC(=O)O [Hydrocortisone hemisuccinate, reference compound] | 0 | 1.5 | 0.6 | 4.9 |  |  |  |  |  |  |
| C[C@]12CC[C@@H](O)C[C@H]1CC[C@@H]1[C@@H]2[C@@H](O)C[C@@]2(C)[C@H]1CC[C@]2(O)C(=O)CO [Tetrahydrocortisol, tetrahydrocortisol, reference compound] |  |  |  |  | 1.00 |  |  |  |  |  |
| Vitamin E [reference compound] |  |  |  |  |  |  |  |  |  | % Inhibition of Endothelial Cell Proliferation ([3]; concentration 1.0 μM): 0%; % Inhibition of Endothelial Cell Proliferation ([3]; concentration 5.0 μM): 0%; % Inhibition of Endothelial Cell Proliferation ([3]; concentration 10 μM): 1% |
